Patent US20100204115A1, “USE OF ACETYL- (ALA10, 11)-RANTES (1-14) AND/OR CALCITONIN AS ANTI-ANGIOGENIC AGENTS” (priority 2007, published 2010)

Assays:
HIV-1IIIB = assay: HIV-1 antiviral assay in CEM-SS cells (MTS readout); conditions: positive controls
HCMV strain AD169 = assay: HCMV plaque formation assay in MRC-5 cells; conditions: for inhibition of HCMV plaque formation as compared to the virus control experiment: 10 micrograms per ml, 7-10 days
IL-4, spleen cells = assay: Th1/Th2 cytokine profiling assay, IL-4; type: cell-based, Balb/c mice; conditions: 10 micrograms per ml; Ovalbumin-restimulated spleen cells, 72 hours
Text: (§1) Th1/Th2 Cytokine Profiling Assay The Balb/c mice (originated in 1923, it is a popular strain and is used in many different research disciplines. […] On day 50, spleens of the mice were harvested (3 weeks after last boost with Ovalbumin). […] This kit can be used to measure Interleukin-2 (IL-2), Interleukin-4 (IL-4), Interleukin-5 (IL-5), Interferon-γ (IFN-γ), and Tumor Necrosis Factor-α (TNF-α) protein levels in a single sample. The kit performance has been optimized for analysis of physiologically relevant concentrations (pg/ml levels) of specific cytokine proteins in tissue culture supernatants and serum samples.

RAW 264.7 cells = assay: Phagocytosis assay (Fluorescein-labeled Escherichia coli, flow cytometry); type: cell-based, mouse; conditions: 10 micrograms per ml
IL-2, spleen cells = assay: Th1/Th2 cytokine profiling assay, IL-2; type: cell-based, Balb/c mice; conditions: 10 micrograms per ml; Ovalbumin-restimulated spleen cells, 72 hours
Text: as §1

A549 cells = assay: Apoptosis prevention assay (C2 ceramide, Annexin-5); type: cell-based, human; conditions: 10 micrograms per ml, 30 min pretreatment
[1] = system: Primary Human endothelial cells (HUVEC); assay: Endothelial cell migration assay; type: cell-based; conditions: 10 micrograms per ml, 22 hours
IL-5, spleen cells = assay: Th1/Th2 cytokine profiling assay, IL-5; type: cell-based, Balb/c mice; conditions: 10 micrograms per ml; Ovalbumin-restimulated spleen cells, 72 hours
Text: as §1

HUVEC = assay: Endothelial tube formation assay; type: cell-based, human; conditions: 10 micrograms per ml, 20 hours, average tubule length, combination peptide 1:peptide 2 0.95 mole:1.05 mole
Method: The endothelial tube formation assay is based on the ability of endothelial cells to form three-dimensional capillary-like tubular structures when cultured on a gel of basement membrane extract. The endothelial tube formation assay represents a powerful model for studying inhibition and induction of angiogenesis. Pre-labeled HUVEC with Calcein AM were seeded in a 96-well culture plate coated with extracellular metrix (Chemicon international Cat. ECM625) and treated with test peptides—10 micrograms per ml—in full growth medium. Positive control was vehicle only. The endothelial cells were allowed to form tubes foe 20 hours and were then examined under an inverted fluorescent microscope. Duplicate wells for each treatment were photographed and quantitatively analyzed for an average tubule length using image analysis software ImageProPlus. Raw data were expressed as average tubule lenghs in pixels ±standard deviation. Statistic p values were computed using the Student's t-test.

[2] = system: hepatitis B virus (HBV) ayw strain; assay: HBV experimental assay system, secreted HBV DNA by TaqMan PCR; type: cell-based; conditions: 10 micrograms per ml; HepG2-2.2.15, six days, HBV DNA in supernatant; combination 0.95 mole peptide 1 and 1.05 mole peptide 2
TNF-a, spleen cells = assay: Th1/Th2 cytokine profiling assay, TNF-a; type: cell-based, Balb/c mice; conditions: 10 micrograms per ml; Ovalbumin-restimulated spleen cells, 72 hours
Text: as §1

IFNγ, spleen cells = assay: Th1/Th2 cytokine profiling assay, IFNγ; type: cell-based, Balb/c mice; conditions: 10 micrograms per ml; Ovalbumin-restimulated spleen cells, 72 hours
Text: as §1

## Cc1cn([C@H]2C[C@H](N=[N+]=[N-])[C@@H](CO)O2)c(=O)[nH]c1=O [AZT]
HIV-1IIIB
  antiviral activity of positive control compounds: expected levels of antiviral activity

## Nc1nc(O)c2ncn(COC(CO)CO)c2n1 [Ganciclovir, reference compound]
HCMV strain AD169; HCMV AD169, positive control
  antiviral activity of positive control compound: expected levels of antiviral activity

## CC(C)(C)NC(=O)[C@@H]1CN(Cc2cccnc2)CCN1C[C@@H](O)C[C@@H](Cc1ccccc1)C(=O)N[C@H]1c2ccccc2C[C@H]1O [indinavir]
HIV-1IIIB
  antiviral activity of positive control compounds: expected levels of antiviral activity

## Ac-Ser-Pro-Tyr-Ser-Ser-Asp-Thr-Thr-Pro-Ala-Ala-Phe-Ala-Tyr-NH2 (Ac-SPYSSDTTPAAFAY-NH2) [peptide 1]
IL-4, spleen cells
  IL-4 spleen cells; TH2 response (% of control): 80.4 % of control
RAW 264.7 cells; RAW 264.7, Fluorescein-labeled E. coli
  increase of the phagocytic activity of murine macrophages: 42.9%
IL-2, spleen cells
  IL-2 spleen cells (% of control): 116.2 % of control
A549 cells
  increase of the ceramide-induced apoptosis on human lung cells: 13.2%
[1]
  induction of the migration of human endothelial cells: 11%
IL-5, spleen cells
  IL-5 spleen cells; TH2 response (% of control): 70.7 % of control
HUVEC
  inhibition of the tube formation of endothelial cells: 26%
[2]
  inhibition of HBV replication as compared to the virus control infection: 40.7%
HCMV strain AD169
  inhibition of HCMV plaque formation as compared to the virus control experiment: did not inhibit HCMV plaque formation
TNF-a, spleen cells
  TNF-a spleen cells; TH1 response (% of control): 107.4 % of control
IFNγ, spleen cells
  IFNγ spleen cells; TH1 response (% of control): 102.8 % of control

## Cys-Gly-Asn-Leu-Ser-Thr-Cys-Met-Leu-Gly-Thr-Tyr-Thr-Gln-Asp-Phe-Asn-Lys-Phe-His-Thr-Phe-Pro-Gln-Thr-Ala-Ile-Gly-Val-Gly-Ala-Pro-NH2 [peptide 2]
IL-4, spleen cells
  IL-4 spleen cells; TH2 response (% of control): 0.0 % of control
RAW 264.7 cells; RAW 264.7, combination peptide 1:peptide 2 1.10 mole:0.90 mole
  inhibitory or activating effects on the phagocytic activity of murine macrophages: no inhibitory or activating effects on the phagocytic activity
IL-2, spleen cells
  IL-2 spleen cells (% of control): 110.1 % of control
A549 cells; combination 0.95 mole peptide 1 and 1.05 mole peptide 2
  reduction of the ceramide-induced apoptosis on human lung cells: 32.7%
[1]
  inhibition of the migration of human endothelial cells: 26%
IL-5, spleen cells
  IL-5 spleen cells; TH2 response (% of control): 60.2 % of control
HUVEC
  inhibition of the tube formation of endothelial cells: 18%
[2]
  inhibition of HBV replication as compared to the virus control infection: 31.0%
HCMV strain AD169
  inhibition of HCMV plaque formation as compared to the virus control experiment: did not inhibit HCMV plaque formation
TNF-a, spleen cells
  TNF-a spleen cells; TH1 response (% of control): 116.4 % of control
IFNγ, spleen cells
  IFNγ spleen cells; TH1 response (% of control): 63.7 % of control
